The record followed here is publication PMC8123576 (International Journal of Molecular Sciences, 2021).

SMILES strings stand for the structures. Where two headings read alike, the source gives them in different places.

One data set relates to A. cepa root cells. The note with it: for MN (micronuclei frequency): NC 1.10 ± 1.28; for CA (aberrated cells / total cells in mitosis): NC 1.2. Here is the method:
To detect micronuclei and chromosomal aberrations six equal-sized pre-germinated young bulbs per sample were exposed for 24 h to sample dilutions. The bulbs dedicated to the micronuclei test underwent an additional treatment in the saline solution for 44 h of recovery time to cover two rounds of mitosis so that damage induced in chromosomes during mitosis to be visible as micronuclei in interphase cells. Then all the roots were fixed in acetic acid and ethanol (1:3) for 24 h and lastly stored in 70% ethanol. The negative control was DMSO in Rank’s solution (the dose of DMSO corresponding to volume of samples) and positive control was maleic hydrazide (10^−2 M, 6 h exposure). […] All experiments were performed in duplicate.

The next data set relates to Crl1790 cells. Kind of data set: Cytotoxicity assay (CellTiter 96 AQueous One) on Crl1790. The format is cell-based, human. The note with it: Crl1790 cells, 24 h, only at the highest concentration (100 µM). Here is the method: (§1) The best antifungal and/or antiaflatoxigenic compounds were tested to determine their cytotoxic activity against human normal cell lines deriving from lung (HFL1, ATCC and CCL-153), skin (Hs27, ATCC, CRL1634) and colon (Crl1790, ATCC, CCD 841 CoN) and a cell line deriving from a hematological tumor (U937, ATCC and CRL-3253). These different cell lines have been chosen to simulate the different human exposition routes to pesticide. Cell culture conditions have been previously reported. Compound cytotoxicity was determined using CellTiter 96® AQueous One Solution Cell Proliferation Assay (Promega Corporation, Madison, WI, USA). The very detailed protocol was described by Bartoli et al.. In brief, cells were seeded in a 96-well plate at a density of 5000 cells/well and after 24 h cells were treated with different concentrations of the compounds (0.5–1–5–10–50–100 µM). After the treatment period (24 h), the CellTiter Reagent was added to each well (20 µL/well) and the plate incubated for 4 h at 37 °C. The plate was then read at 485 nm in a multiwell plate reader (TECAN SpectraFluor Plus, Männedorf, Switzerland).

Experiment in data set [1]: as above
The settings on record: human, Crl1790 (CCD 841 CoN) normal colon cells, Crl1790, 24 h, dose 0 = 100.00, read-out: Growth inhibition data. The format is cell-based, human. Here is the method:
as §1

Data set [2] concerns S. typhimurium TA98 and TA100 strains. Kind of data set: Ames test, overall mutagenicity verdict in bacteria. The note with it: TA98 and TA100, -S9 and +S9.

On to `CC(=NNC(N)=S)c1cccs1` [2-actpTS, 2-acetylthiophenethiosemicarbazone], for which the “MN (micronuclei frequency)” value in the data set on A. cepa root cells (10 µM) was 1.20 ± 0.83%; in the data set on A. cepa root cells (25 µM) it was 1.40 ± 1.14%; in the data set on A. cepa root cells (50 µM) it was 2.00 ± 1.58%. The “CA (aberrated cells / total cells in mitosis)” value with A. cepa root cells (10 µM) was found to be 2.7%; in the data set with A. cepa root cells (25 µM), 4.7%; in the data set with A. cepa root cells (50 µM), 6.3%; in the data set on A. cepa root cells (100 µM), 6.0%. In the data set on A. cepa root cells (100 µM dose), the “toxicity to roots in the micronuclei test” value was “highly toxic”. Moreover, the “cytotoxic activity” value in the data set on Crl1790 cells is on record as “mild cytotoxic activity”. Besides, in data set [1] (0.5 µM), the viability at 24 h, 0.5 µM worked out at 100 ± 3.63%. Besides, in data set [1] (1 µM), the viability at 24 h, 1 µM worked out at 95.1 ± 7.76%. For the same compound, in data set [1] (5 µM), the viability at 24 h, 5 µM stood at 88.4 ± 2.25%. The viability at 24 h, 10 µM in data set [1] (10 µM) stood at 89.1 ± 5.24%. In addition, in data set [1] (50 µM), the viability at 24 h, 50 µM turned out to be 81.8 ± 3.48%. In addition, in data set [1] (100 µM), the viability at 24 h, 100 µM was 62 ± 4.6%. Moreover, the “mutagenicity in bacteria” value in data set [2] is given as “no mutagenicity at any of the concentrations tested”.
